Experimental data: patent US6525001B1, “Substituted pyrimidine and pyridine herbicides” (Mid-American Commercialization Corporation, priority 1997, dated 2003)

Experiments:
Test in all cases: Test D
Format in all cases: in vivo
[1] = system: wild mustard (Sinapis arvensis); design: key: 0 is no effect; 100 is complete control; settings: POSTEMERGENCE
Experimental: (§1) Compounds evaluated in this test were formulated in a non-phytotoxic solvent mixture which included a surfactant and applied to plants that were in the 1- to 4-leaf stage (postemergence application). A mixture of sandy loam soil and greenhouse potting mix in a 60:40 ratio was used for the postemergence test.
(§2) Plantings of these crops and weed species were adjusted to produce plants of appropriate size for the postemergence test. All plant species were grown using normal greenhouse practices. Crop and weed species include alfalfa (Medicago sativa), annual bluegrass (Poa annua), blackgrass (Alopecurus myosuroides), black nightshade (Solanum nigra), chickweed (Stellaria media), common poppy (Papaver rhoeas), deadnettle (Lamium amplexicaule), downy brome (Bromus tectorum), field violet (Viola arvensis), galium 2 (Galium aparine), green foxtail (Setaria viridis), Italian ryegrass (Lolium multiflorum), jointed goatgrass (Aegilops cylindrica), kochia (Kochia scoparia), lambsquarters (Chenopodium album), lentil (Lens culinaris), littleseed canarygrass (Phalaris minor), pea (Pisum sativum), potato (Solanum tuberosum), rape (Brassica napus), redroot pigweed (Amaranthus retroflexus), Russian thistle (Salsola kali), scentless chamomile (Matricaria inodora), sorghum (Sorghum vulgare), spring barley (Hordeum vulgare), sugar beet (Beta vulgaris), sunflower (Helianthus annuus), ivyleaf speedwell (Veronica hederaefolia), spring wheat (Triticum aestivum), winter wheat (Triticum aestivum), wild buckwheat (Polygonum convolvulus), wild mustard (Sinapis arvensis), wild oat (Avena fatua), windgrass (Apera spica-venti) and winter barley (Hordeum vulgare).
(§3) Treated plants and untreated controls were maintained in a greenhouse for approximately 21 to 28 days, after which all treated plants were compared to untreated controls and visually evaluated. Plant response ratings, summarized in Table D, are based upon a 0 to 100 scale where 0 is no effect and 100 is complete control. A dash response (−) means no test result.

[2] = system: common poppy (Papaver rhoeas); design: key: 0 is no effect; 100 is complete control; settings: POSTEMERGENCE
Experimental: as §1, §2, §3

[3] = system: black nightshade (Solanum nigra); design: key: 0 is no effect; 100 is complete control; settings: POSTEMERGENCE
Experimental: as §1, §2, §3

[4] = system: sugar beet (Beta vulgaris); design: key: 0 is no effect; 100 is complete control; settings: POSTEMERGENCE
Experimental: as §1, §2, §3

[5] = system: sugar beet (Beta vulgaris); design: key: 0 is no effect; 100 is complete control; settings: PREEMERGENCE
[6] = system: spring wheat (Triticum aestivum); design: key to Plant response rating, Spring Wheat: 0 is no effect; settings: PREEMERGENCE
[7] = system: winter barley (Hordeum vulgare); design: key: 0 is no effect; settings: PREEMERGENCE
[8] = system: galium 2 (Galium aparine); settings: POSTEMERGENCE
Experimental: as §1, §2, §3

kochia (Kochia scoparia) = settings: POSTEMERGENCE
Experimental: as §1, §2, §3

[9] = system: redroot pigweed (Amaranthus retroflexus); settings: POSTEMERGENCE
Experimental: as §1, §2, §3

[10] = system: wild buckwheat (Polygonum convolvulus); settings: POSTEMERGENCE
Experimental: as §1, §2, §3

[11] = system: chickweed (Stellaria media); settings: PREEMERGENCE
[12] = system: lambsquarters (Chenopodium album); design: key: 0 is no effect; 100 is complete control; settings: PREEMERGENCE

SMILES: Cc1cnc(-n2ccc(C(F)(F)F)n2)nc1Cn1ccc(C(F)(F)F)n1 [Compound 52]
- Plant response rating, Wild mustard ([1]; Rate 16 g/ha): 60
- Plant response rating, Wild mustard ([1]; Rate 31 g/ha): 70
- Plant response rating, Wild mustard ([1]; Rate 62 g/ha): 98
- Plant response rating, Wild mustard ([1]; Rate 125 g/ha): 100
- Plant response rating, Common poppy ([2]; Rate 16 g/ha): 60
- Plant response rating, Common poppy ([2]; Rate 31 g/ha): 100
- Plant response rating, Common poppy ([2]; Rate 62 g/ha): 100
- Plant response rating, Common poppy ([2]; Rate 125 g/ha): 100
- Plant response rating, Blk nightshade ([3]; Rate 16 g/ha): 55
- Plant response rating, Blk nightshade ([3]; Rate 31 g/ha): 60
- Plant response rating, Blk nightshade ([3]; Rate 62 g/ha): 65
- Plant response rating, Blk nightshade ([3]; Rate 125 g/ha): 65
- Plant response rating, Sugar beet ([4]; Rate 16 g/ha): 100
- Plant response rating, Sugar beet ([4]; Rate 31 g/ha): 100
- Plant response rating, Sugar beet ([4]; Rate 62 g/ha): 100
- Plant response rating, Sugar beet ([4]; Rate 125 g/ha): 100
- Plant response rating, Sugar beet ([5]; Rate 31 g/ha): 100
- Plant response rating, Sugar beet ([5]; Rate 62 g/ha): 100
- Plant response rating, Sugar beet ([5]; Rate 125 g/ha): 100
- Plant response rating, Spring Wheat ([6]; Rate 31 g/ha): 60
- Plant response rating, Spring Wheat ([6]; Rate 62 g/ha): 70
- Plant response rating, Spring Wheat ([6]; Rate 125 g/ha): 70
- Plant response rating, Barley (winter) ([7]; Rate 31 g/ha): 50
- Plant response rating, Barley (winter) ([7]; Rate 62 g/ha): 50
- Plant response rating, Barley (winter) ([7]; Rate 125 g/ha): 60
- Plant response rating, Galium ([8]; Rate 16 g/ha): 40
- Plant response rating, Galium ([8]; Rate 31 g/ha): 50
- Plant response rating, Galium ([8]; Rate 62 g/ha): 65
- Plant response rating, Galium ([8]; Rate 125 g/ha): 60
- Plant response rating, Kochia (kochia (Kochia scoparia); Rate 16 g/ha): 70
- Plant response rating, Kochia (kochia (Kochia scoparia); Rate 31 g/ha): 70
- Plant response rating, Kochia (kochia (Kochia scoparia); Rate 62 g/ha): 70
- Plant response rating, Kochia (kochia (Kochia scoparia); Rate 125 g/ha): 70
- Plant response rating, Redroot pigweed ([9]; Rate 16 g/ha): 45
- Plant response rating, Redroot pigweed ([9]; Rate 31 g/ha): 60
- Plant response rating, Redroot pigweed ([9]; Rate 62 g/ha): 60
- Plant response rating, Redroot pigweed ([9]; Rate 125 g/ha): 70
- Plant response rating, Wild buckwheat ([10]; Rate 16 g/ha): 60
- Plant response rating, Wild buckwheat ([10]; Rate 31 g/ha): 50
- Plant response rating, Wild buckwheat ([10]; Rate 62 g/ha): 70
- Plant response rating, Wild buckwheat ([10]; Rate 125 g/ha): 80
- Plant response rating, Chickweed ([11]; Rate 31 g/ha): 30
- Plant response rating, Chickweed ([11]; Rate 62 g/ha): 80
- Plant response rating, Chickweed ([11]; Rate 125 g/ha): 85
- Plant response rating, Lambsquarters ([12]; Rate 31 g/ha): 90
- Plant response rating, Lambsquarters ([12]; Rate 62 g/ha): 90
- Plant response rating, Lambsquarters ([12]; Rate 125 g/ha): 100

SMILES: CCc1cnc(-c2ccc(C(F)(F)F)cc2)nc1Cc1cccc(C(F)(F)F)c1 [Compound 22]
- Plant response rating, Wild mustard ([1]; Rate 62 g/ha): 100
- Plant response rating, Wild mustard ([1]; Rate 125 g/ha): 100
- Plant response rating, Common poppy ([2]; Rate 62 g/ha): 100
- Plant response rating, Common poppy ([2]; Rate 125 g/ha): 100
- Plant response rating, Blk nightshade ([3]; Rate 62 g/ha): 90
- Plant response rating, Blk nightshade ([3]; Rate 125 g/ha): 100
- Plant response rating, Sugar beet ([4]; Rate 62 g/ha): 100
- Plant response rating, Sugar beet ([4]; Rate 125 g/ha): 100
- Plant response rating, Sugar beet ([5]; Rate 62 g/ha): 30
- Plant response rating, Sugar beet ([5]; Rate 125 g/ha): 100
- Plant response rating, Sugar beet ([5]; Rate 250 g/ha): 80
- Plant response rating, Spring Wheat ([6]; Rate 62 g/ha): 0
- Plant response rating, Spring Wheat ([6]; Rate 125 g/ha): 10
- Plant response rating, Spring Wheat ([6]; Rate 250 g/ha): 5
- Plant response rating, Barley (winter) ([7]; Rate 62 g/ha): 0
- Plant response rating, Barley (winter) ([7]; Rate 125 g/ha): 20
- Plant response rating, Barley (winter) ([7]; Rate 250 g/ha): 10
- Plant response rating, Galium ([8]; Rate 62 g/ha): 70
- Plant response rating, Galium ([8]; Rate 125 g/ha): 90
- Plant response rating, Kochia (kochia (Kochia scoparia); Rate 62 g/ha): 50
- Plant response rating, Kochia (kochia (Kochia scoparia); Rate 125 g/ha): 70
- Plant response rating, Redroot pigweed ([9]; Rate 62 g/ha): 50
- Plant response rating, Redroot pigweed ([9]; Rate 125 g/ha): 70
- Plant response rating, Wild buckwheat ([10]; Rate 62 g/ha): 20
- Plant response rating, Wild buckwheat ([10]; Rate 125 g/ha): 20
- Plant response rating, Chickweed ([11]; Rate 62 g/ha): 40
- Plant response rating, Chickweed ([11]; Rate 125 g/ha): 70
- Plant response rating, Chickweed ([11]; Rate 250 g/ha): 30
- Plant response rating, Lambsquarters ([12]; Rate 62 g/ha): 60
- Plant response rating, Lambsquarters ([12]; Rate 125 g/ha): 70
- Plant response rating, Lambsquarters ([12]; Rate 250 g/ha): 70
